This passage reports GI50 and TGI results from PubChem BioAssay (NCI).

Test systems include CAKI-1 renal; HL-60(TB) leukemia; HT29 colon; NCI-H23 lung; NCI-H522 lung; OVCAR-3 ovarian; SN12C renal; SNB-75 CNS; TK-10 renal; UACC-62 melanoma.
What all share (experiment): DTP human tumour cell line panel, 48 h

In general, GI50 refers to the concentration that inhibits growth by half. A word on the TGI: it is the concentration at which net growth stops. Read a low TGI as more potent growth arrest.

Molecules are shown by their SMILES. Values joined by “and” are separate entries in the source; they are usually repeats but may differ in a detail not shown here. Identical values can stand only once.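 Compound exposure: 48 hours, 5 concentrations, 96-well plates. Here, GI50 denotes the concentration required for 50% inhibition of growth. At the TGI there is no net growth.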 Where a SMILES comes first, the peptide text is derived from it. [ ]: non-standard residue; d: D form. The star is where a group is joined. ξ: configuration not given here. NMeN = CN[C@@H](CC(N)=O)C(=O)O; NMeV = CN[C@H](C(=O)O)C(C)C; ξNMeV = CNC(C(=O)O)C(C)C; Boc = CC(C)(C)OC(=O)*; ξNMeA = CNC(C)C(=O)O

Take `O=P([O-])(O)OP(=O)([O-])O.[NH-][C@@H]1CCCC[C@H]1[NH-].[Pt+4]`: the GI50 is 6.41 µM and 5.25 µM in the assay on CAKI-1 renal; greater than 70.2 µM in the assay on HL-60(TB) leukemia; 5.67 µM and 3.09 µM in the assay with HT29 colon; 18.4 µM and 12.3 µM in the assay with NCI-H23 lung; 14.6 µM in the assay with NCI-H522 lung; 23.8 µM and 11.2 µM in the assay with OVCAR-3 ovarian. In addition, the GI50 with SN12C renal is 17.6 µM and 8.78 µM; with SNB-75 CNS it was > 100 µM and 34 µM; with TK-10 renal, 52.4 µM; in the assay on UACC-62 melanoma it was 9.62 µM and 4.21 µM. Moreover, the TGI is > 100 µM and 41.7 µM in the assay with CAKI-1 renal; greater than 100 µM with HL-60(TB) leukemia; greater than 100 µM in the assay on HT29 colon; > 100 µM and 91.1 µM in the assay on NCI-H23 lung; greater than 100 µM in the assay on NCI-H522 lung; > 100 µM and 29.4 µM in the assay with OVCAR-3 ovarian. Moreover, the concentration for total growth inhibition (TGI) is greater than 100 µM in the assay on SN12C renal; greater than 100 µM in the assay with SNB-75 CNS; greater than 100 µM with TK-10 renal; > 100 µM and 33.5 µM in the assay with UACC-62 melanoma.
Take `C=C1C(=O)[C@@]23CC1C(O)[C@@H](OC(C)=O)[C@@H]2C1(C)C(OC(C)=O)C[C@@H](OC(C)=O)C(C)(C)[C@@H]1C[C@H]3OC(C)=O` (stereo not given in full): the GI50 in the assay on CAKI-1 renal was 3.03 µg/mL; in the assay on HL-60(TB) leukemia, 1.89 µM and 0.529 µg/mL; in the assay on HT29 colon, 6.13 µM and 2.61 µg/mL; with NCI-H23 lung, 7.86 µM and 2.63 µg/mL; in the assay on NCI-H522 lung, 1.31 µM and 0.288 µg/mL; with OVCAR-3 ovarian, > 10 µM and 3.93 µg/mL. The GI50 in the assay with SN12C renal was 5.5 µg/mL; with SNB-75 CNS, > 10 µM and 7.25 µg/mL; in the assay on TK-10 renal, > 10 µM and 2.29 µg/mL; in the assay on UACC-62 melanoma it was 1.77 µg/mL. Besides, the TGI with CAKI-1 renal is > 10 µM and 8.66 µg/mL; in the assay with HL-60(TB) leukemia, 3.67 µM and 3 µg/mL; in the assay with HT29 colon, > 10 µM and 7.22 µg/mL; with NCI-H23 lung, > 10 µM and 7.68 µg/mL; in the assay with NCI-H522 lung it was 2.64 µM and 1.44 µg/mL; in the assay on OVCAR-3 ovarian, > 10 µM and 8.34 µg/mL. The TGI is > 10 µM and 17 µg/mL in the assay with SN12C renal; > 10 µM and 20.5 µg/mL in the assay on SNB-75 CNS; > 10 µM and 5.15 µg/mL in the assay on TK-10 renal; 3.53 µg/mL in the assay with UACC-62 melanoma.
Regarding `O=C1c2ccccc2C2(O)NC(=S)N(c3ccccc3)C12O` (stereo not given), the TGI with CAKI-1 renal, with HL-60(TB) leukemia, with HT29 colon, with NCI-H23 lung, with NCI-H522 lung and in the assay with OVCAR-3 ovarian was greater than 100 µM in each case. The concentration for total growth inhibition (TGI) in the assay on SNB-75 CNS, with TK-10 renal and in the assay on UACC-62 melanoma was greater than 100 µM throughout.
As for `Cc1ccc(NC(=O)CC(=O)n2nc(-c3ccccc3)c(N=Nc3ccccc3Cl)c2-c2ccccc2)cc1`, the total growth inhibition concentration (TGI) with CAKI-1 renal, with HL-60(TB) leukemia, in the assay with HT29 colon, in the assay with NCI-H23 lung, in the assay on NCI-H522 lung and with OVCAR-3 ovarian was greater than 100 µM throughout. Besides, the TGI in the assay with SN12C renal is greater than 100 µM; with SNB-75 CNS it was 42.1 µM; with TK-10 renal, greater than 100 µM; with UACC-62 melanoma, greater than 100 µM. The GI50 in the assay with HL-60(TB) leukemia is 93.8 µM; in the assay on HT29 colon, greater than 100 µM; in the assay on OVCAR-3 ovarian it was greater than 100 µM; in the assay on SN12C renal, greater than 100 µM.
Take `CCn1c(O)c(C=N)c(=O)n(CC)c1=O`: the TGI in the assay on CAKI-1 renal, with HL-60(TB) leukemia, with HT29 colon, in the assay with NCI-H23 lung, in the assay on NCI-H522 lung and with OVCAR-3 ovarian was greater than 100 µM throughout. Also, the total growth inhibition concentration (TGI) in the assay on SN12C renal, in the assay on SNB-75 CNS, in the assay with TK-10 renal and with UACC-62 melanoma was greater than 100 µM in each case.
With `NC(=O)c1ccc2c(-c3ccnc(NCCCO)n3)c(-c3ccc(F)cc3)nn2c1`, the GI50 in the assay on CAKI-1 renal is greater than 25 µM; in the assay on HL-60(TB) leukemia, greater than 21.9 µM; with HT29 colon it was greater than 21.2 µM; in the assay on NCI-H23 lung, greater than 25 µM; in the assay with NCI-H522 lung, greater than 25 µM; in the assay with OVCAR-3 ovarian, 18.6 µM. For the same molecule, the GI50 in the assay on SN12C renal is greater than 25 µM; with SNB-75 CNS it was greater than 10 µM; with TK-10 renal it was greater than 18.6 µM; in the assay on UACC-62 melanoma it was greater than 25 µM. Moreover, the TGI in the assay with CAKI-1 renal, in the assay on HL-60(TB) leukemia, in the assay with HT29 colon, in the assay with NCI-H23 lung, in the assay with NCI-H522 lung and in the assay on OVCAR-3 ovarian was greater than 25 µM throughout. For the same molecule, the TGI in the assay on SN12C renal, in the assay with SNB-75 CNS, with TK-10 renal and in the assay on UACC-62 melanoma was greater than 25 µM in each case.
As to `COC(=O)C(C)N(C)C(=O)[C@H](CC(N)=O)N(C)C(=O)[C@@H]1CCCN1C(=O)[C@H](C(C)C)N(C)C(=O)C(C(C)C)N(C)C(=O)[C@@H](NC(=O)OC(C)(C)C)C(C)C` (stereo not given in full) (Boc-V[ξNMeV][NMeV]P[NMeN][ξNMeA]-OMe), the GI50 in the assay on CAKI-1 renal, in the assay with HL-60(TB) leukemia, in the assay on HT29 colon, in the assay with OVCAR-3 ovarian, with SN12C renal and in the assay on TK-10 renal was greater than 100 µM throughout. In addition, the GI50 in the assay with UACC-62 melanoma is greater than 100 µM. The TGI in the assay on CAKI-1 renal is greater than 100 µM; with HL-60(TB) leukemia it was 50 µM and > 100 µM; with HT29 colon, greater than 100 µM; with NCI-H23 lung, greater than 50 µM; with NCI-H522 lung, greater than 50 µM; with OVCAR-3 ovarian, greater than 100 µM. Further, the TGI in the assay with SN12C renal, in the assay with SNB-75 CNS, in the assay with TK-10 renal and with UACC-62 melanoma was greater than 100 µM in each case.
`COC(=O)c1c2c(c(C)[n+]([O-])c1C)C(=O)C=C(NCc1ccc(OC)cc1)C2=O`: the GI50 in the assay on CAKI-1 renal is 1.5 µM; in the assay on HL-60(TB) leukemia it was 0.794 µM; with HT29 colon, 1.2 µM; in the assay on NCI-H23 lung it was 1.36 µM; with NCI-H522 lung, 1.82 µM; in the assay with OVCAR-3 ovarian, 0.795 µM. The GI50 in the assay on SN12C renal is 1.69 µM; in the assay on SNB-75 CNS, 5.12 µM; in the assay with TK-10 renal, 8.3 µM; in the assay with UACC-62 melanoma, 0.85 µM. Further, the concentration for total growth inhibition (TGI) in the assay on CAKI-1 renal was 6.81 µM; in the assay on HL-60(TB) leukemia it was 2.21 µM; with HT29 colon, greater than 36.7 µM; with NCI-H23 lung, 4.35 µM; in the assay with NCI-H522 lung, 5.16 µM; in the assay with OVCAR-3 ovarian, 2.29 µM. The TGI turned out to be 4.3 µM in the assay with SN12C renal, 9.53 µM in the assay on SNB-75 CNS, 25.8 µM in the assay with TK-10 renal and 2.51 µM with UACC-62 melanoma.
